Measured values reported in patent US11786586B2, “Carbohydrate structures and uses thereof” (AOA Dx, priority 2016, dated 2023).
Values belong to the compound of their own block, whether it stands above or below them.

Legend:
Water solubility = type: physicochemical
Description: Carbohydrates were synthesized as previously described (Gilbert, M., et al. J Biol Chem. 277(1):327-337, 2002; Chiu, C. P., et al. Nat Struc Mol Bio. 11(2)163-170, 2004; and Blixt, O., Carbohydrate Research. 340(12):1963-1972, 2005) by modification of the process for phenylthio-GD2 in which the phenylthio moiety was substituted with a p-aminophenylether in the starting p-aminophenyl-β-D-lactopyranoside (AP-Lac, from Toronto Research Chemicals), that was subsequently used to enzymatically synthesize the respective ganglioside carbohydrate for conjugation to the dendrimer (see below). AP-GD2 and AP-GD3 were water soluble (>20 mg/ml). The measured molecular weights of AP-GD2 (1218 g/mol) and AP-GD3 (927 g/mol) corresponded to expected values. Structures were verified by 1D and 2D NMR spectroscopy and mass spectrometry (EI-MS). The AP-GD2 and AP-GD3 intermediates were purified to >99% purity by size-exclusion chromatography (Superdex 30 16 mm×85 cm column, GE Health Care) before their application in the synthesis of the tetrameric vaccines.

T-cells = assay: 3H-thymidine incorporation of T-cells treated with Concanavalin A; type: cell-based, mouse; conditions: ConA stimulation; mean±SD
Protocol: (§1) EL4-GD2+ cells and control Jurkat cells were treated with 25 μg/mL Mitomycin (Sigma) for 1 h to arrest proliferation. After the cells were washed three times with media to remove Mitomycin, they were plated in 96-well plates at 2×10^5 cells/well. Single cell suspensions of splenocytes were obtained from twice immunized (as above) and from vehicle-injected control mice. Cells were separated following the protocol of the EasySep Negative Selection Mouse T-cell Enrichment Kit (Stemcell Technologies). […] The T-cells were plated at a ratio of 10:1 with Mitomycin-treated EL4 or Jurkat cells. As controls, cultures of T-cells alone (no stimulating tumor cells) or T-cells treated with Concanavalin A were used. After 5 days of culture, 0.1 μCi/well 3H-thymidine (Sigma-Aldrich) was added. DNA-incorporated 3H-thymidine was counted by liquid scintillation, and data are reported as average cpm ±SD. […] After 7 days, in vitro, cell viability was assessed by staining with 0.1% Trypan Blue, and cells were counted using a hemocytometer. Bright field images were acquired using an Olympus CKX41 microscope, mounted with an Infinity 1 digital camera and Infinity Analyze software (Lumenera Corporation).

Jurkat cells = assay: 3H-thymidine incorporation (proliferation) assay, Jurkat stimulator cells; type: cell-based; conditions: 25 μg/mL Mitomycin for 1 h
Protocol: as §1

EL4-GD2+ cells = assay: 3H-thymidine incorporation (proliferation) assay, EL4-GD2+ stimulator cells; type: cell-based, mouse; conditions: 25 μg/mL Mitomycin for 1 h
Protocol: as §1

water solubility (in words) (Water solubility): water-soluble
Compound: p-amino phenyl ether-GD3 [AP-GD3]

Compound: Concanavalin A [ConA]
3H-thymidine incorporation, T-cells from Tetra-GD2 vaccinated mice (T-cells): 19,834±309 cpm
3H-thymidine incorporation, T-cells from naive mice (T-cells): 21,457±504 cpm

water solubility (in words) (Water solubility): water-soluble
Compound: p-amino phenyl ether-GD2 [AP-GD2]

Compound: CO[C@@]12[C@H](COC(N)=O)C3=C(C(=O)C(C)=C(N)C3=O)N1C[C@@H]1N[C@@H]12 [Mitomycin]
3H-thymidine incorporation of mitomycin-treated Jurkat cells (Jurkat cells): 107±5 cpm
3H-thymidine incorporation of mitomycin-treated EL4-GD2+ cells (EL4-GD2+ cells): 188±4 cpm
